According to US20100311714A1, “1H-IMIDAZO[4,5-c]QUINOLINONE COMPOUNDS” (priority 2009, published 2010):
Like-named read-outs stand apart in the source and are kept apart here.

Experiments:
[1] = tested on: PKB Ser473 phosphorylation in Rat1-myr-HA-p110 delta cells; assay: Reverse protein array, PKB Ser473 phosphorylation in Rat1-myr-HA-p110 delta cells; type: cell-based; details: Rattus norvegicus, 0.5 h, 30 minutes compound incubation, read-out: p-PKB/IC50_delta
[2] = tested on: S6 Ribosomal Protein phosphorylation Ser235/236 in TSC1 null mouse embryo fibroblast (MEF) cells; assay: Reverse protein array, S6 Ribosomal Protein phosphorylation in TSC1 null MEF cells; type: cell-based; details: 1 h, TSC1-/- MEFs, 60 minutes
Method in brief: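 Phospho-S6 (Ser235/236) was quantified by reverse protein array of cell lysates with a phospho-specific primary antibody. […]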

IC50 [1] [nM]	SMILES	IC50 ([2]; read-out: p-S6) [nM]	IC50 ([2]; read-out: p-S6 IC50) [nM]
29.1	CNC(=O)c1ccc(-c2ccc3ncc4c(c3c2)n(-c2cccnc2C)c(=O)n4C)cc1 [Example 2.4, N-Methyl-4-[3-methyl-1-(2-methyl-pyridin-3-yl)-2-oxo-2,3-dihydro-1H-imidazo[4,5-c]quinolin-8-yl]-benzamide]	23.1	–
7.6	CCNc1cc(-c2ccc3ncc4c(c3c2)n(-c2ccc(N3CCCC3)nc2C)c(=O)n4C)cnc1CO [Example 25.5, 8-(5-Ethylamino-6-hydroxymethyl-pyridin-3-yl)-3-methyl-1-(2-methyl-6-pyrrolidin-1-yl-pyridin-3-yl)-1,3-dihydro-imidazo[4,5-c]quinolin-2-one]	–	–
43.2	Cn1c(=O)n(-c2cccnc2F)c2c3cc(-c4cnc5[nH]ccc5c4)ccc3ncc21 [Example 6.3, 1-(2-Fluoro-pyridin-3-yl)-3-methyl-8-(1H-pyrrolo[2,3-b]pyridin-5-yl)-1,3-dihydro-imidazo[4,5-c]quinolin-2-one]	–	–
715	COc1cc(-c2ccc3ncc4c(c3c2)n(-c2ccc(N)nc2C)c(=O)n4C)cnc1CO [Example 30.1, 1-(6-Amino-2-methyl-pyridin-3-yl)-8-(6-hydroxymethyl-5-methoxy-pyridin-3-yl)-3-methyl-1,3-dihydro-imidazo[4,5-c]quinolin-2-one]	–	–
119	Cc1nc(F)ccc1-n1c(=O)n(C)c2cnc3ccc(-c4cncc(N5CCC5)c4)cc3c21 [Example 7.6, 8-(5-Azetidin-1-yl-pyridin-3-yl)-1-(6-fluoro-2-methyl-pyridin-3-yl)-3-methyl-1,3-dihydro-imidazo[4,5-c]quinolin-2-one]	–	7
8.9	Cc1nc(N2CCC(O)C2)ccc1-n1c(=O)n(C)c2cnc3ccc(-c4cnc(N)c(C(F)(F)F)c4)cc3c21 (centres unmarked) [Example 27.3, 8-(6-Amino-5-trifluoromethyl-pyridin-3-yl)-1-[6-(3-hydroxy-pyrrolidin-1-yl)-2-methyl-pyridin-3-yl]-3-methyl-1,3-dihydro-imidazo[4,5-c]quinolin-2-one]	–	–
93.1	COc1ccc(-n2c(=O)n(C)c3cnc4ccc(-c5cncc(N6CCC6)c5)cc4c32)c(OC)n1 [Example 8.11, 8-(5-Azetidin-1-yl-pyridin-3-yl)-1-(2,6-dimethoxy-pyridin-3-yl)-3-methyl-1,3-dihydro-imidazo[4,5-c]quinolin-2-one]	–	1
13.8	Cc1ncccc1-n1c(=O)n(C)c2cnc3ccc(-c4cnc5[nH]ccc5c4)cc3c21 [Example 2.8, 3-Methyl-1-(2-methyl-pyridin-3-yl)-8-(1H-pyrrolo[2,3-b]pyridin-5-yl)-1,3-dihydro-imidazo[4,5-c]quinolin-2-one]	–	–
336	COCc1ncc(-c2ccc3ncc4c(c3c2)n(-c2cccnc2C)c(=O)n4C)cc1OC [Example 2.30, 8-(5-Methoxy-6-methoxymethyl-pyridin-3-yl)-3-methyl-1-(2-methyl-pyridin-3-yl)-1,3-dihydro-imidazo[4,5-c]quinolin-2-one]	–	34
88.5	COc1cc(-c2ccc3ncc4c(c3c2)n(-c2ccc(N3CC(F)(F)C3)nc2C)c(=O)n4C)cnc1CO [Example 24.4, 1-[6-(3,3-Difluoro-azetidin-1-yl)-2-methyl-pyridin-3-yl]-8-(6-hydroxymethyl-5-methoxy-pyridin-3-yl)-3-methyl-1,3-dihydro-imidazo[4,5-c]quinolin-2-one]	–	–
12.8	CCNc1cc(-c2ccc3ncc4c(c3c2)n(-c2ccc(N(C)CCO)nc2C)c(=O)n4C)cnc1CO [Example 26.3, 8-(5-Ethylamino-6-hydroxymethyl-pyridin-3-yl)-1-{6-[(2-hydroxy-ethyl)-methyl-amino]-2-methyl-pyridin-3-yl}-3-methyl-1,3-dihydro-imidazo[4,5-c]quinolin-2-one]	–	–
186	COc1ccc(-n2c(=O)n(C)c3cnc4ccc(-c5cnc(CO)c(OC)c5)cc4c32)c(OC)n1 [Example 8.14, 1-(2,6-Dimethoxy-pyridin-3-yl)-8-(6-hydroxymethyl-5-methoxy-pyridin-3-yl)-3-methyl-1,3-dihydro-imidazo[4,5-c]quinolin-2-one]	–	–
599	COc1ccc(-n2c(=O)n(C)c3cnc4ccc(-c5cnc(C(OC)OC)c(OC)c5)cc4c32)c(OC)n1 [Example 8.13, 8-(6-Dimethoxymethyl-5-methoxy-pyridin-3-yl)-1-(2,6-dimethoxy-pyridin-3-yl)-3-methyl-1,3-dihydro-imidazo[4,5-c]quinolin-2-one]	–	15
178	COc1cc(-c2ccc3ncc4c(c3c2)n(-c2ccc(N3CC[C@H](O)C3)nc2C)c(=O)n4C)cnc1CO [Example 32.7, 8-(6-Hydroxymethyl-5-methoxy-pyridin-3-yl)-1-[6-((S)-3-hydroxy-pyrrolidin-1-yl)-2-methyl-pyridin-3-yl]-3-methyl-1,3-dihydro-imidazo[4,5-c]quinolin-2-one]	–	21.4
121	COc1cc(-c2ccc3ncc4c(c3c2)n(-c2ccc(N3CCC(OC)C3)nc2C)c(=O)n4C)cnc1CO (centres unmarked) [Example 28.3, 8-(6-Hydroxymethyl-5-methoxy-pyridin-3-yl)-1-[6-(3-methoxy-pyrrolidin-1-yl)-2-methyl-pyridin-3-yl]-3-methyl-1,3-dihydro-imidazo[4,5-c]quinolin-2-one]	–	8
42	CNc1ncc(-c2ccc3ncc4c(c3c2)n(-c2ccc(N3CC[C@@H](O)C3)nc2C)c(=O)n4C)cn1 [Example 34.1, 1-[6-((R)-3-Hydroxy-pyrrolidin-1-yl)-2-methyl-pyridin-3-yl]-3-methyl-8-(2-methylamino-pyrimidin-5-yl)-1,3-dihydro-imidazo[4,5-c]quinolin-2-one]	–	3
315	COc1cc(-c2ccc3ncc4c(c3c2)n(-c2ccc(F)nc2C)c(=O)n4C)cnc1CO [Example 7.10, 1-(6-Fluoro-2-methyl-pyridin-3-yl)-8-(6-hydroxymethyl-5-methoxy-pyridin-3-yl)-3-methyl-1,3-dihydro-imidazo[4,5-c]quinolin-2-one]	–	15
38.1	CCOc1ccc(-c2ccc3ncc4c(c3c2)n(-c2ccc(N3CCC(O)C3)nc2C)c(=O)n4C)cn1 (centres unmarked) [Example 27.4, 8-(6-Ethoxy-pyridin-3-yl)-1-[6-(3-hydroxy-pyrrolidin-1-yl)-2-methyl-pyridin-3-yl]-3-methyl-1,3-dihydro-imidazo[4,5-c]quinolin-2-one]	–	–
350	Cc1nc(N2CC(O)C2)ccc1-n1c(=O)n(C)c2cnc3ccc(-c4cncc(C(C)(C)O)c4)cc3c21 [Example 29.1, 1-[6-(3-Hydroxy-azetidin-1-yl)-2-methyl-pyridin-3-yl]-8-[5-(1-hydroxy-1-methyl-ethyl)-pyridin-3-yl]-3-methyl-1,3-dihydro-imidazo[4,5-c]quinolin-2-one]	–	15
16	CNc1ncc(-c2ccc3ncc4c(c3c2)n(-c2ccc(N3CC[C@H](O)C3)nc2C)c(=O)n4C)cc1Cl [Example 32.4, 8-(5-Chloro-6-methylamino-pyridin-3-yl)-1-[6-((S)-3-hydroxy-pyrrolidin-1-yl)-2-methyl-pyridin-3-yl]-3-methyl-1,3-dihydro-imidazo[4,5-c]quinolin-2-one]	–	4
22.9	CNc1ncc(-c2ccc3ncc4c(c3c2)n(-c2ccc(N3CCC(OC)C3)nc2C)c(=O)n4C)cn1 (centres unmarked) [Example 28.2, 1-[6-(3-Methoxy-pyrrolidin-1-yl)-2-methyl-pyridin-3-yl]-3-methyl-8-(2-methylamino-pyrimidin-5-yl)-1,3-dihydro-imidazo[4,5-c]quinolin-2-one]	–	1
309	Cc1nc(N2CCC(O)C2)ccc1-n1c(=O)n(C)c2cnc3ccc(-c4cncc(C(C)(C)O)c4)cc3c21 (centres unmarked) [Example 27.5, 8-[5-(1-Hydroxy-1-methyl-ethyl)-pyridin-3-yl]-1-[6-(3-hydroxy-pyrrolidin-1-yl)-2-methyl-pyridin-3-yl]-3-methyl-1,3-dihydro-imidazo[4,5-c]quinolin-2-one]	–	33
598	COCc1ncc(-c2ccc3ncc4c(c3c2)n(-c2ccc(F)nc2C)c(=O)n4C)cc1OC [Example 7.7, 1-(6-Fluoro-2-methyl-pyridin-3-yl)-8-(5-methoxy-6-methoxymethyl-pyridin-3-yl)-3-methyl-1,3-dihydro-imidazo[4,5-c]quinolin-2-one]	–	113
16.3	CCNc1cc(-c2ccc3ncc4c(c3c2)n(-c2ccc(N3CC(F)(F)C(F)(F)C3)nc2C)c(=O)n4C)cnc1CO [Example 35.2, 8-(5-Ethylamino-6-hydroxymethyl-pyridin-3-yl)-3-methyl-1-[2-methyl-6-(3,3,4,4-tetrafluoro-pyrrolidin-1-yl)-pyridin-3-yl]-1,3-dihydro-imidazo[4,5-c]quinolin-2-one]	–	1
58.1	COc1cc(-c2ccc3ncc4c(c3c2)n(-c2ccc(N3CCCC3)nc2C)c(=O)n4C)cnc1CO [Example 25.4, 8-(6-Hydroxymethyl-5-methoxy-pyridin-3-yl)-3-methyl-1-(2-methyl-6-pyrrolidin-1-yl-pyridin-3-yl)-1,3-dihydro-imidazo[4,5-c]quinolin-2-one]	–	7
